Data as given in US20070004633A1, “Use of peptidic conjugates for preparing compositions for alopecia preventive and curative treatment” (priority 2003, published 2007).
Lipoyl = N-lipoyl

System: anagen-phase hair follicles of mouse vibrissae
Assay: Growth of mouse vibrissae in vitro (anagen-phase hair follicle culture, technique of Philpott)
Format: cell-based
Set-up: unit not given here
Settings: peptide 10^−7 M, cultured mouse vibrissae follicles
Procedure: Effects of the Various Peptides on the Growth of Mouse Vibrissae In Vitro
In order to show the stimulatory effect of the peptides on hair growth, anagen-phase hair follicles of mouse vibrissae are cultured according to the technique described by Philpott (Philpott et al. 1994, Human Hair growth in vitro: a model for the study of hair biology. Journal of dermatological science 7; S55-S72). The growth of the hair follicle shaft was followed for several days (D0 to D4). The results are reported in the table below for the peptides R, S and V described above.

In the case of “Lipoyl-Lys-Gly-His-Lys-NH2 (Lipoyl-KGHK-NH2) [Peptide S]”, the “growth of the hair follicle shaft” value (D0) is reported as 0.00, the “growth of the hair follicle shaft” value (D1) is reported as 0.77 and the “growth of the hair follicle shaft” value (D2) is reported as 1.47. The “growth of the hair follicle shaft” value (D3) was 1.72 and the “growth of the hair follicle shaft” value (D4) was 1.86.
In the case of “Ac-Lys-Gly-His-Lys-NH2 (Ac-KGHK-NH2) [Peptide V]”, the “growth of the hair follicle shaft” value (D0) is reported as 0.00, the “growth of the hair follicle shaft” value (D1) is reported as 0.86 and the “growth of the hair follicle shaft” value (D2) is reported as 1.34. The “growth of the hair follicle shaft” value (D3) was 1.65 and the “growth of the hair follicle shaft” value (D4) was 1.65.
With H-Gly-His-Lys-OH [Peptide R] the “growth of the hair follicle shaft” value (D0) was 0.00, the “growth of the hair follicle shaft” value (D1) was 0.8 and the “growth of the hair follicle shaft” value (D2) was 1.27. For the same substance, the “growth of the hair follicle shaft” value (D3) was 1.38 and the “growth of the hair follicle shaft” value (D4) was 1.38.
